One experiment concerns systemic blood pressure. The experiment is described as follows: Systemic blood pressure (average pressure) in anesthetized dogs. The format is in vivo, dog. Particulars: Canis lupus familiaris, iv, % of value before administration, average ± standard error, read-out: Average blood pressure, percentage compared with control. As to the method: (§1) The pharmacological effects of the compounds of the present invention with respect to the blood flow and blood vessel resistance of vertebral artery and systemic blood pressure (average pressure) in anesthetized dogs. […] The first and second ribs were cut open to expose the left vertebral artery. A probe was attached to the origin of the artery and the blood flow was measured with an electromagnetic rheometer (Model MF-27, product of Nihon Koden K.K.) At the same time, continuous measurement of the following parameters was made: systemic blood pressure (average pressure) at the right femoral artery, the ECG in the second induction period, the heart beat with a tachometer driven by the R wave, and the blood vessel resistance determined by loading a multiplication/division unit (EO-601 G, product of Nihon Koden K.K.) with the average values of blood pressure and blood flow in the vertebral artery. All of these parameters were recorded simultaneously on a polygraph (RM-600, product of Nihon Koden, K.K.) All of the test compounds were injected through a cannula inserted into the femoral […].

Experiment [1] has as its system coronary artery (isolated heart). The experiment is described as follows: Coronary vascular dilative effect, isolated perfused guinea pig heart, Langendorff's method (perfusion pressure). Particulars: for Pharmacological data ED50: 0.1 ml injected into coronary artery, isolated guinea pig heart, 37° C., 6 ml/minute; for coronary vascular dilative effects (in words): Langendorff's method, guinea pig heart. As to the method:
The coronary vascular dilative effect of 3N-substituted 3,4-dihydropryrimidine derivatives was tested.
Heartly guinea pigs (weight 400-500 g) were clubbed dead and their hearts were immediately isolated. The hearts were perfused with Krebs-Henseleit solution bubbled with a mixture of 95% O2 +5% CO2 and maintained at 37° C. at a certain rate of 6 ml/minute according to Langendorff's method [J. Pharmacol. Methods 2, 143 (1979)]. The perfusion pressure was determined by a pressure transducer. Samples were prepared by dissolving 1 mg of a test compound in 1 ml of a mixture of dimethylsulfoxide and physiological saline (1:9) and diluting with physiological saline the solution to the predetermined concentration. 0.1 ml of the diluted solution was administered into the coronary artery via a rubber tube connected to an aorta cannula to obtain ED50 (μg/heart) data as shown in Table 1. The numbers of the compounds in the Table correspond respectively to those of the working examples described above.

In the next experiment the test system is vertebral artery. The experiment is described as follows: Blood flow and blood vessel resistance of vertebral artery in anesthetized dogs. The format is in vivo, dog. Particulars: Canis lupus familiaris, iv, % of value before administration, average ± standard error. As to the method:
as §1

Where [2] appears, read: read-out: Vertebral artery blood flow, percentage compared with control.
The mark [3] stands for this setting: read-out: Vertebral artery vessel resistance, percentage compared with control.

Read-outs that look alike come from different tables or passages of the source.

Regarding `CCOC(=O)C1=C(C)N=C(C)N(C(=O)OCC)C1c1ccccc1Br` (centres unmarked) [Compound 8], in the experiment with systemic blood pressure, the response vs control in vivo at 0.001 mg/kg is 93%, the response vs control in vivo at 0.003 mg/kg was determined as 87%, the response vs control in vivo at 0.01 mg/kg came out at 81% and the response vs control in vivo at 0.03 mg/kg was 83%. In addition, in the experiment on systemic blood pressure, the response vs control in vivo at 0.1 mg/kg was 79%. For the same molecule, in experiment [1], the “Pharmacological data ED50” value came to 0.033 μg/heart and the “coronary vascular dilative effects (in words)” value was “extremely strong coronary vascular dilative effects”. Also, in the experiment on vertebral artery (setting [2]), the response vs control in vivo at 0.001 mg/kg worked out at 110%, the response vs control in vivo at 0.003 mg/kg was 117%, the response vs control in vivo at 0.01 mg/kg stood at 140% and the response vs control in vivo at 0.03 mg/kg turned out to be 182%. Also, the response vs control in vivo at 0.1 mg/kg in the experiment on vertebral artery (setting [2]) is 211%. Also, in the experiment on vertebral artery (setting [3]), the response vs control in vivo at 0.001 mg/kg amounted to 89%, the response vs control in vivo at 0.003 mg/kg was 81%, the response vs control in vivo at 0.01 mg/kg amounted to 64% and the response vs control in vivo at 0.03 mg/kg was found to be 48%. For the same molecule, the response vs control in vivo at 0.1 mg/kg in the experiment on vertebral artery (setting [3]) is 40%.

`CCOC(=O)C1=C(Cl)N=C(C)N(C(=O)OCC)C1c1ccccc1[N+](=O)[O-]` (centres unmarked) [Compound 4]: in the experiment with systemic blood pressure, the response vs control in vivo at 0.001 mg/kg was determined as 95 ± 1%, the response vs control in vivo at 0.003 mg/kg is 93 ± 1%, the response vs control in vivo at 0.01 mg/kg was determined as 91 ± 2% and the response vs control in vivo at 0.03 mg/kg was 88 ± 1%. The response vs control in vivo at 0.1 mg/kg in the experiment on systemic blood pressure turned out to be 84 ± 2%. Further, the “Pharmacological data ED50” value in experiment [1] stood at 0.25 μg/heart. Further, in the experiment on vertebral artery (setting [2]), the response vs control in vivo at 0.001 mg/kg turned out to be 107 ± 4%, the response vs control in vivo at 0.003 mg/kg was 113 ± 6%, the response vs control in vivo at 0.01 mg/kg amounted to 143 ± 12% and the response vs control in vivo at 0.03 mg/kg turned out to be 147 ± 16%. In addition, the response vs control in vivo at 0.1 mg/kg in the experiment on vertebral artery (setting [2]) was 182 ± 16%. Besides, in the experiment with vertebral artery (setting [3]), the response vs control in vivo at 0.001 mg/kg was determined as 91 ± 5%, the response vs control in vivo at 0.003 mg/kg stood at 86 ± 7%, the response vs control in vivo at 0.01 mg/kg was determined as 66 ± 4% and the response vs control in vivo at 0.03 mg/kg was 61 ± 5%. Also, the response vs control in vivo at 0.1 mg/kg with vertebral artery (setting [3]) stood at 51 ± 3%.

In the case of `CCOC(=O)C1=C(C)N=C(C)N(C(=O)OCC)C1c1ccccc1[N+](=O)[O-]` (centres unmarked) [Compound 1, 2,6-Dimethyl-5-ethoxycarbonyl-3-N-ethoxycarbonyl-4-(2'-nitrophenyl)-3,4-dihydropyrimidine], the response vs control in vivo at 0.0003 mg/kg with systemic blood pressure (0.0003 mg/kg) turned out to be 94 ± 3%. Also, in the experiment on systemic blood pressure, the response vs control in vivo at 0.001 mg/kg came out at 90 ± 1%, the response vs control in vivo at 0.003 mg/kg was 88 ± 1%, the response vs control in vivo at 0.01 mg/kg turned out to be 79 ± 3% and the response vs control in vivo at 0.03 mg/kg amounted to 74 ± 4%. Further, the response vs control in vivo at 0.1 mg/kg with systemic blood pressure worked out at 75%. In experiment [1], the “Pharmacological data ED50” value is reported as 0.055 μg/heart and the “coronary vascular dilative effects (in words)” value was “extremely strong coronary vascular dilative effects”. Besides, in the experiment with vertebral artery (setting [2]), the response vs control in vivo at 0.0003 mg/kg was 107 ± 4%, the response vs control in vivo at 0.001 mg/kg was determined as 115 ± 9%, the response vs control in vivo at 0.003 mg/kg was found to be 136 ± 6% and the response vs control in vivo at 0.01 mg/kg came out at 172 ± 20%. In the experiment with vertebral artery (setting [2]), the response vs control in vivo at 0.03 mg/kg worked out at 184 ± 26% and the response vs control in vivo at 0.1 mg/kg was found to be 234%. Besides, in the experiment on vertebral artery (setting [3]), the response vs control in vivo at 0.0003 mg/kg is 93 ± 5%, the response vs control in vivo at 0.001 mg/kg came to 89 ± 4%, the response vs control in vivo at 0.003 mg/kg worked out at 72 ± 5% and the response vs control in vivo at 0.01 mg/kg was 55 ± 3%. Further, in the experiment with vertebral artery (setting [3]), the response vs control in vivo at 0.03 mg/kg was 50 ± 6% and the response vs control in vivo at 0.1 mg/kg turned out to be 41%.

Source of the values: patent publication US4640922A, “3N-substituted 3,4-dihydropyrimidines as agents for treating disorders of cardiovascular system” (Suntory Limited, priority 1984, dated 1987).
